# Read-outs that look alike come from different tables or passages of the source.
# Assays:
# [1] = molecular target: NR2B-subtype NMDA receptors (Rattus norvegicus (Rat), UniProt P35439+Q00960); test: Radioligand binding assay (3H Ro 25-6981 competition, forebrain membranes); conditions: 3H Ro 25-6981 (4 nM)
# How it was run: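 Rat forebrain membranes competed against [3H]Ro 25-6981 for 1 hr at room temperature, then filtered onto PEI-treated GF/B plates and counted by scintillation. CPM converted to % inhibition, concentration-response curves fitted, Ki derived from at least two experiments.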
# [2] = molecular target: NR2B-subtype receptors (Mus musculus (Mouse), UniProt P35438+Q01097); test: Ex vivo occupancy assay; format: in vivo; conditions: mice, after i.v. dosing
# NR2B-subtype receptors, sequence (Q01097 27-1482, other chains not shown): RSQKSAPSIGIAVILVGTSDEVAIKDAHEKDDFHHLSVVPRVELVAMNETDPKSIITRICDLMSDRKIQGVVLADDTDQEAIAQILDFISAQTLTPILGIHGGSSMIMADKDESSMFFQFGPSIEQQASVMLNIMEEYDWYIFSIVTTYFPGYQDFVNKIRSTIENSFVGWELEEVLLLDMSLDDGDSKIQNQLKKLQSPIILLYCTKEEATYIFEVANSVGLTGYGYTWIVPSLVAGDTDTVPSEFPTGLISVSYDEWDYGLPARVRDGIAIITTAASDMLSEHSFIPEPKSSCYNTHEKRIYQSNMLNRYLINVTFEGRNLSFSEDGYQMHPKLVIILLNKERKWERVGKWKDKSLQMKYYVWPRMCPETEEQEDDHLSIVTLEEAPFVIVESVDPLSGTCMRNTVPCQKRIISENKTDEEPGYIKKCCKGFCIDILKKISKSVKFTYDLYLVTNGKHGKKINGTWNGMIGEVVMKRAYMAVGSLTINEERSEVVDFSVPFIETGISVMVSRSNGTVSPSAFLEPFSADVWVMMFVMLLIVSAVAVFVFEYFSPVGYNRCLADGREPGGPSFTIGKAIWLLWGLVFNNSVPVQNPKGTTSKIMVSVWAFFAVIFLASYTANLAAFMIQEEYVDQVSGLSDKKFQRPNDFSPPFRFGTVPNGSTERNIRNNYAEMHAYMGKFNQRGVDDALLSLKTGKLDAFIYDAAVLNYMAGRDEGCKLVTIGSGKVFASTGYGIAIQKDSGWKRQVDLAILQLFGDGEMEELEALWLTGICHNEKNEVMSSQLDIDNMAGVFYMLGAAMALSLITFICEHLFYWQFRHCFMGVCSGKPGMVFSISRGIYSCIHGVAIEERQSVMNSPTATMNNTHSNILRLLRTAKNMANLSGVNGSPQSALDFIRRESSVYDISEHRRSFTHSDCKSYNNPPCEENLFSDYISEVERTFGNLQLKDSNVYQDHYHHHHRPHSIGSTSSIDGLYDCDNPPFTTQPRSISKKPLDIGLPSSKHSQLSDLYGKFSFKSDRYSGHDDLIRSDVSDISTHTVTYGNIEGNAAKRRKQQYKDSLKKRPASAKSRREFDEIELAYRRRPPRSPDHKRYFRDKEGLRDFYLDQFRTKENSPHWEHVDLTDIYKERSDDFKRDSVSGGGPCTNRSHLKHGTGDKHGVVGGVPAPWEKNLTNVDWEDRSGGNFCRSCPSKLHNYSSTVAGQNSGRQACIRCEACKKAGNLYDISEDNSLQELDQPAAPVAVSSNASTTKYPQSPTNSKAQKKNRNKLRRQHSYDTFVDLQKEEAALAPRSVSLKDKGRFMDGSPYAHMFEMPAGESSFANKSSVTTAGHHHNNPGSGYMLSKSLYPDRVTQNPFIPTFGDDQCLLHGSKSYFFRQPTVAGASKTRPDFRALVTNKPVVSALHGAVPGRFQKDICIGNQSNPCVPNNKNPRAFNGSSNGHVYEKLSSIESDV
# Protocol: 7-9 weeks old male CD-1 mice were dosed intravenously in a vehicle consisting of 10% dimethylacetamide, 40% PEG-400, […], and 30% water with experimental compounds and the forebrains were harvested 15 minutes […] by decapitation. The brain samples were immediately snap-frozen and stored at −80° C. On the following day, the dosed brain samples were thawed on ice for 15-20 minutes followed by homogenization using Polytron for 10 seconds in cold homogenization buffer composed of 50 mM KH2PO4 (pH adjusted to 7.4 with KOH), 1 mM EDTA, 0.005% Triton X 100 and protease inhibitor cocktail (Sigma Aldrich). The crude homogenates were further homogenized using a Dounce homogenizer and the homogenized membrane aliquots from all animals were flash-frozen and stored at −80° C. until further use. The whole homogenization process was performed on ice.
# For determining occupancy, the membrane homogenates were first thawed on ice and then needle-homogenized using a 25 gauge needle. The homogenized membrane (6.4 mg/ml) was added to a 96-well plate followed by addition of ^3H Ro 25-6981 (6 nM). […] The filter plates were dried at 50° C. for 20 mins, incubated with microscint 20 for 10 minutes and read on TopCount (Perkin Elmer). […] Non-specific binding was determined using 10 μM Ro 25-6981 added to the wells containing membrane homogenates from vehicle-dosed animals. […]
# [3] = test system: mice; test: Mouse Forced Swim Test (mFST); format: in vivo; conditions: 1 mg/Kg i.v., 15 min before swim session, 6 min test
# Protocol: Mouse Forced Swim Test (mFST).
# Forced Swim Test (FST) is an animal model used to assess antidepressant compounds in preclinical studies. The FST was performed similar to the method of Porsolt et al. with modifications (Porsolt R D, Bertin A, Jalfre M. Behavioral despair in mice: a primary screening test for antidepressants. Arch Int Pharmacodyn Thér 1977; 229:327-36). In this paradigm, mice are forced to swim in an inescapable cylinder filled with water. Under these conditions, mice will initially try to escape and eventually develop immobility behavior; this behavior is interpreted as a passive stress-coping strategy or depression-like behavior. […] The duration of immobility was evaluated during the total 6 min of the test and expressed as duration (sec) of immobility. […] All testing sessions were recorded with a video camera (Sony Handicam, Model: DCR—HC38E; PAL) and scoring was done using the Forced Swim Scan, Version 2.0 software (Clever Systems Inc., Reston, Va., USA; see Hayashi E, Shimamura M, Kuratani K, Kinoshita M, Hara H. Automated experimental system capturing three behavioral components during murine forced swim test. Life Sci. 2011 Feb. 28; 88(9-10):411-7 and Yuan P, Tragon T, Xia M, Leclair C A, Skoumbourdis A P, Zheng W, Thomas C J, Huang R, Austin C P, Chen G, Guitart X. Phosphodiesterase 4 inhibitors enhance […] in rodents. […]
# NR2B-subtype NMDA receptors, sequence (Q00960 27-1482, other chains not shown): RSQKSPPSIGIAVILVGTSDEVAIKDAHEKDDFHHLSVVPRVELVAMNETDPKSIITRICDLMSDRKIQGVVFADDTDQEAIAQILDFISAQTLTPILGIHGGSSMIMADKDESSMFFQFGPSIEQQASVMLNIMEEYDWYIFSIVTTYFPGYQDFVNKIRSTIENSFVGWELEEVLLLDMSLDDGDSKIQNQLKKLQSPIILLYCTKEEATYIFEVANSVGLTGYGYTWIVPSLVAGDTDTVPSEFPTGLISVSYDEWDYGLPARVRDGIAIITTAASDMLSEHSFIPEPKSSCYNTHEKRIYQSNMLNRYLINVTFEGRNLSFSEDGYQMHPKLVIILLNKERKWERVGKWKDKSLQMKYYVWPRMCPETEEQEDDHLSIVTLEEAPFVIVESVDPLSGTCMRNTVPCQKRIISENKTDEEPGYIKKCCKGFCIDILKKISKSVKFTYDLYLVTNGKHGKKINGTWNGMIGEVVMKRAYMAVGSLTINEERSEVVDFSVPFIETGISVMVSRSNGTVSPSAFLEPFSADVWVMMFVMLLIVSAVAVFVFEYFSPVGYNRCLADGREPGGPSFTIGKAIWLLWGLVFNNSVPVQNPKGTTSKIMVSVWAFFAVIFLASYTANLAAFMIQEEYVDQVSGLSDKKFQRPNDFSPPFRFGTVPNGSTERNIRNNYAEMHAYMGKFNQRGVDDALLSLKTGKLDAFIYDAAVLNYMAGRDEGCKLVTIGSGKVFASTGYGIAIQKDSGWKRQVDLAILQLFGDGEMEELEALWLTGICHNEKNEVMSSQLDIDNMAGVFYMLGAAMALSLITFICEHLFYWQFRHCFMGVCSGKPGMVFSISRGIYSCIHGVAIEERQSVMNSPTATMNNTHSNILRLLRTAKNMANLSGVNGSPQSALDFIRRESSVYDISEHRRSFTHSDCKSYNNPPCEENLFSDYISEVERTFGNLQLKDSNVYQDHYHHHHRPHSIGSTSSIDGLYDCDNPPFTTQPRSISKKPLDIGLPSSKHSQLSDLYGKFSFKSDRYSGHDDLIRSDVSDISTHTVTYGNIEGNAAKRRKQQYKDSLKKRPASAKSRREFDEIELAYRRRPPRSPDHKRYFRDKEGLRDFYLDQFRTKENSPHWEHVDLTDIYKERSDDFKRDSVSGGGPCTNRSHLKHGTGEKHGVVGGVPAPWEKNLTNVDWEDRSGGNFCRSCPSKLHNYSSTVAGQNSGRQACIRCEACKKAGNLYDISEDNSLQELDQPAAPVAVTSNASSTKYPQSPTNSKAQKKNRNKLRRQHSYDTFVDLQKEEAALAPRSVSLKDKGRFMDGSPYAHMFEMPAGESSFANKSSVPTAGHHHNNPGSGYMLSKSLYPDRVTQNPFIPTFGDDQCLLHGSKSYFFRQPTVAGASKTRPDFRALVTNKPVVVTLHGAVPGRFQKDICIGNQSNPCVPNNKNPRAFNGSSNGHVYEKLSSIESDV
Structure (SMILES),Ki ([1]; read-out: NR2B Binding Ki),also measured
"O=C1C(N2CCC(c3ccc(O)cc3)CC2)CCN1Cc1ccc(F)cc1 (racemic) [Example 1, 1-(4-Fluorobenzyl)-3-(4-(4-hydroxyphenyl)piperidin-1-yl)pyrrolidin-2-one]",3 nM,Ki ([1]; read-out: binding Ki): 4 nM; occupancy of brain-resident NR2B-subtype receptors (in words) [2]: occupies brain-resident NR2B-subtype receptors
"Cc1ccc(CN2CC[C@@H](N3CC[C@@H](c4ccc(O)cc4)[C@H](F)C3)C2=O)cc1 [Example 46, P-4, (R)-3-((3S,4S)-3-fluoro-4-(4-hydroxyphenyl)piperidin-1-yl)-1-(4-methylbenzyl)pyrrolidin-2-one]",,immobility time [3]: statistically significant decrease in immobility time
"O=C1C(N2CCC(c3ccc(O)cc3)C(O)C2)CCN1Cc1ccc(F)cc1 (single isomer, unassigned) [Example 44, E-1, 1-(4-Fluorobenzyl)-3-(cis-3-hydroxy-4-(4-hydroxyphenyl)piperidin-1-yl)pyrrolidin-2-one]",,"Ki ([1]; listed as 44, E-1, read-out: NR2B Binding Ki): 650 nM"
"O=C1[C@@H](N2CCC(c3ccc(O)cc3)C(F)(F)C2)CCN1Cc1ccc(Cl)cc1 (stereo partly drawn) [Example 106, P-1, (3S)-1-(4-Chlorobenzyl)-3-(3,3-difluoro-4-(4-hydroxyphenyl)piperidin-1-yl)pyrrolidin-2-one]",990 nM,
"O=C1C(N2CCC(c3ccc(O)cc3)CC2)CCN1Cc1ccccc1 (stereo not drawn) [Example 12, 1-Benzyl-3-(4-(4-hydroxyphenyl)piperidin-1-yl)pyrrolidin-2-one]",4 nM,
"O=C1C(N2CCC(c3ccc(O)cc3)CC2)CCN1Cc1ccc(OC(F)F)cc1 (stereo not drawn) [Example 7, 1-(4-(Difluoromethoxy)benzyl)-3-(4-(4-hydroxyphenyl)piperidin-1-yl)pyrrolidin-2-one]",37 nM,
"O=C1[C@H](N2CC[C@@H](c3ccc(O)cc3)[C@H](F)C2)CCN1Cc1ccc(F)cc1 [Example 48, P-3]",11 nM,
"Cc1ccc(CN2CC[C@H](N3CC[C@@H](c4ccc(O)cc4)[C@H](F)C3)C2=O)cc1F [Example 47, P-1, (S)-3-((3S,4S)-3-Fluoro-4-(4-hydroxyphenyl)piperidin-1-yl)-1-(3-fluoro-4-methylbenzyl)pyrrolidin-2-one]",470 nM,
"O=C1[C@@H](N2CCC(c3ccc(O)cc3)CC2)CCN1Cc1ccc(Cl)cc1 [Example 18a, (S)-1-(4-Chlorobenzyl)-3-(4-(4-hydroxyphenyl)piperidin-1-yl)pyrrolidin-2-one]",170 nM,
"Cc1cccc(CN2CCC(N3CCC(c4ccc(O)cc4)C(F)(F)C3)C2=O)c1 (stereo not drawn) [Example 104, 3-(3,3-Difluoro-4-(4-hydroxyphenyl)piperidin-1-yl)-1-(3-methylbenzyl)pyrrolidin-2-one]",130 nM,

# — patent US9221796B2, “Selective NR2B antagonists” (BRISTOL-MYERS SQUIBB COMPANY, priority 2014, dated 2015)
